Measured values taken from US7537891B2, “Identification of polynucleotides for predicting activity of compounds that interact with and/or modulate protein tyrosine kinases and/or protein tyrosine kinase pathways in breast cells” (Bristol-Myers Squibb Company, priority 2002, dated 2009).

Key:
Assay in all cases: In vitro cytotoxicity assay (MTS)
Format in all cases: cell-based, human
Set-up in all cases: key to True Class: “S” represents Sensitive; “R” represents Resistant
[1] = tested on: MDA-MB-435S breast cell line
Experimental: (§1) The protein tyrosine kinase inhibitor compound (described in international application WO 00/62778, published Oct. 26, 2000) was tested for cytotoxicity in vitro against a panel of twenty-three human breast cell lines available from the American Type Culture Collection, ATCC, except H3396, which was obtained from Pacific Northwest Research Institute, Seattle Wash. The MCF7/Her2 cell line was established by stable transfection of MCF7 cells with the HER2 gene. Cytotoxicity was assessed in cells by the MTS (3-(4,5-dimethylthiazol-2-yl)-5-(3-carboxymethoxyphenyl)-2-(4-sulphenyl)-2H-tetrazolium, inner salt) assay (T. L. Riss et al., 1992, Mol. Biol. Cell, 3 (Suppl.):184a).
(§2) To carry out the assays, the breast cells were plated at 4,000 cells/well in 96 well microtiter plates, and 24 hours later, serially diluted drugs were added. The concentration range for the protein tyrosine kinase inhibitor compound BMS-A used in the cytotoxicity assay was from 5 μg/ml to 0.0016 μg/ml (roughly 10 μM to 0.0032 μM).
(§3) The cells were incubated at 37° C. for 72 hours at which time the tetrazolium dye, MTS (333 μg/ml final concentration), in combination with the electron coupling agent phenazine methosulfate (25 μM final concentration), was added. A dehydrogenase enzyme in live cells reduces the MTS to a form that absorbs light and can be quantified spectrophotometrically at 492 nM. The greater the absorbency the greater the number of live cells. The results are expressed as an IC50, which is the drug concentration required to inhibit cell proliferation (i.e. absorbance at 492 nm) to 50% of that of untreated control cells. The mean IC50 and standard deviation (SD) from multiple tests for each cell line were calculated.

BT-20 breast cell line = tested on: BT-20 breast cell line
Experimental: as §1, §2, §3

HCC1806 breast cell line = tested on: HCC1806 breast cell line
Experimental: as §1, §2, §3

[2] = tested on: MDA-MB-468 breast cell line
Experimental: as §1, §2, §3

HCC70 breast cell line = tested on: HCC70 breast cell line
Experimental: as §1, §2, §3

[3] = tested on: MDA-MB-231 breast cell line
Experimental: as §1, §2, §3

HS578T breast cell line = tested on: HS578T breast cell line
Experimental: as §1, §2, §3

H3396 breast cell line = tested on: H3396 breast cell line
Experimental: as §1, §2, §3

[4] = tested on: MDA-MB-453 breast cell line
Experimental: as §1, §2, §3

SK-BR-3 breast cell line = tested on: SK-BR-3 breast cell line
Experimental: as §1, §2, §3

BT-474 breast cell line = tested on: BT-474 breast cell line
Experimental: as §1, §2, §3

MCF7 breast cell line = tested on: MCF7 breast cell line
Experimental: as §1, §2, §3

ZR-75-1 breast cell line = tested on: ZR-75-1 breast cell line
Experimental: as §1, §2, §3

[5] = tested on: MDA-MB-436 breast cell line
Experimental: as §1, §2, §3

HCC1419 breast cell line = tested on: HCC1419 breast cell line
Experimental: as §1, §2, §3

[6] = 72 hours, mean of 2 to 5 determinations, read-out: mean IC50 (μM) to BMS-A
[7] = assigned as in Table 1, based on the IC50 results for BMS-A
[8] = resistance/sensitivity to BMS-A based on IC50

`Cc1nc(Nc2ncc(C(=O)Nc3c(C)cccc3Cl)s2)cc(N2CCN(CCO)CC2)n1` [BMS-A] was tested, and the IC50 ([1]; MDA-MB-435S, 72 hours, mean of 2 to 5 determinations, read-out: mean IC50 (μM) to BMS-A) was 7.78 µM, the Classification ([1]; MDA-MB-435S, resistance/sensitivity to BMS-A based on IC50) was “Resistant (those having a log10(IC50) above the mean log10(IC50) were considered to be resistant)” and the “True Class” value ([1]; MDAMB435S, assigned as in Table 1, based on the IC50 results for BMS-A) was “R”. For the same molecule, the “True Class” value (BT-20 breast cell line; BT20, assigned as in Table 1, based on the IC50 results for BMS-A) was “S”, the IC50 (BT-20 breast cell line; BT-20, 72 hours, mean of 2 to 5 determinations, read-out: mean IC50 (μM) to BMS-A) was 0.165 µM and the Classification (BT-20 breast cell line; BT-20, resistance/sensitivity to BMS-A based on IC50) was “Sensitive (The cell lines with a log10(IC50) below the mean log10(IC50) were defined as sensitive to the compound)”. The IC50 (HCC1806 breast cell line; [6]) was 0.219 µM, the “True Class” value (HCC1806 breast cell line; [7]) was “S” and the Classification (HCC1806 breast cell line; [8]) was “Sensitive (The cell lines with a log10(IC50) below the mean log10(IC50) were defined as sensitive to the compound)”. The IC50 ([2]; MDA-MB-468, 72 hours, mean of 2 to 5 determinations, read-out: mean IC50 (μM) to BMS-A) was 7.13 µM, the Classification ([2]; MDA-MB-468, resistance/sensitivity to BMS-A based on IC50) was “Resistant (those having a log10(IC50) above the mean log10(IC50) were considered to be resistant)” and the “True Class” value ([2]; MDAMB468, assigned as in Table 1, based on the IC50 results for BMS-A) was “R”. For the same molecule, the IC50 (HCC70 breast cell line; [6]) was 0.0337 µM, the “True Class” value (HCC70 breast cell line; [7]) was “S” and the Classification (HCC70 breast cell line; [8]) was “Sensitive (The cell lines with a log10(IC50) below the mean log10(IC50) were defined as sensitive to the compound)”. The IC50 ([3]; MDA-MB-231, 72 hours, mean of 2 to 5 determinations, read-out: mean IC50 (μM) to BMS-A) was 0.0095 µM, the Classification ([3]; MDA-MB-231, resistance/sensitivity to BMS-A based on IC50) was “Sensitive (The cell lines with a log10(IC50) below the mean log10(IC50) were defined as sensitive to the compound)” and the “True Class” value ([3]; MDAMB231, assigned as in Table 1, based on the IC50 results for BMS-A) was “S”. For the same molecule, the IC50 (HS578T breast cell line; HS578T, 72 hours, mean of 2 to 5 determinations, read-out: mean IC50 (μM) to BMS-A) was 0.647 µM, the Classification (HS578T breast cell line; HS578T, resistance/sensitivity to BMS-A based on IC50) was “Sensitive (The cell lines with a log10(IC50) below the mean log10(IC50) were defined as sensitive to the compound)” and the “True Class” value (HS578T breast cell line; Hs578T, assigned as in Table 1, based on the IC50 results for BMS-A) was “S”. For the same molecule, the IC50 (H3396 breast cell line; [6]) was 8.2 µM, the “True Class” value (H3396 breast cell line; [7]) was “R” and the Classification (H3396 breast cell line; [8]) was “Resistant (those having a log10(IC50) above the mean log10(IC50) were considered to be resistant)”. For the same molecule, the IC50 ([4]; MDA-MB-453, 72 hours, mean of 2 to 5 determinations, read-out: mean IC50 (μM) to BMS-A) was greater than 9.52 µM, the Classification ([4]; MDA-MB-453, resistance/sensitivity to BMS-A based on IC50) was “Resistant (those having a log10(IC50) above the mean log10(IC50) were considered to be resistant)” and the “True Class” value ([4]; MDAMB453, assigned as in Table 1, based on the IC50 results for BMS-A) was “R”. The IC50 (SK-BR-3 breast cell line; SK-BR-3, 72 hours, mean of 2 to 5 determinations, read-out: mean IC50 (μM) to BMS-A) was 2.75 µM, the Classification (SK-BR-3 breast cell line; SK-BR-3, resistance/sensitivity to BMS-A based on IC50) was “Resistant (those having a log10(IC50) above the mean log10(IC50) were considered to be resistant)” and the “True Class” value (SK-BR-3 breast cell line; SkBr3, assigned as in Table 1, based on the IC50 results for BMS-A) was “R”. The “True Class” value (BT-474 breast cell line; BT474, assigned as in Table 1, based on the IC50 results for BMS-A) was “R”, the IC50 (BT-474 breast cell line; BT-474, 72 hours, mean of 2 to 5 determinations, read-out: mean IC50 (μM) to BMS-A) was 6.74 µM and the Classification (BT-474 breast cell line; BT-474, resistance/sensitivity to BMS-A based on IC50) was “Resistant (those having a log10(IC50) above the mean log10(IC50) were considered to be resistant)”. The IC50 (MCF7 breast cell line; [6]) was greater than 9.52 µM, the “True Class” value (MCF7 breast cell line; [7]) was “R” and the Classification (MCF7 breast cell line; [8]) was “Resistant (those having a log10(IC50) above the mean log10(IC50) were considered to be resistant)”. For the same molecule, the IC50 (ZR-75-1 breast cell line; ZR-75-1, 72 hours, mean of 2 to 5 determinations, read-out: mean IC50 (μM) to BMS-A) was greater than 9.52 µM, the Classification (ZR-75-1 breast cell line; ZR-75-1, resistance/sensitivity to BMS-A based on IC50) was “Resistant (those having a log10(IC50) above the mean log10(IC50) were considered to be resistant)” and the “True Class” value (ZR-75-1 breast cell line; Zr-75-1, assigned as in Table 1, based on the IC50 results for BMS-A) was “R”. For the same molecule, the IC50 ([5]; MDA-MB-436, 72 hours, mean of 2 to 5 determinations, read-out: mean IC50 (μM) to BMS-A) was greater than 9.52 µM, the Classification ([5]; MDA-MB-436, resistance/sensitivity to BMS-A based on IC50) was “Resistant (those having a log10(IC50) above the mean log10(IC50) were considered to be resistant)” and the “True Class” value ([5]; MDAMB436, assigned as in Table 1, based on the IC50 results for BMS-A) was “R”. For the same molecule, the IC50 (HCC1419 breast cell line; [6]) was 2.51 µM, the “True Class” value (HCC1419 breast cell line; [7]) was “R” and the Classification (HCC1419 breast cell line; [8]) was “Resistant (those having a log10(IC50) above the mean log10(IC50) were considered to be resistant)”.
